Measurements reported in ChEMBL document CHEMBL5352486, “Design, synthesis, in vitro - In vivo biological evaluation of novel thiazolopyrimidine compounds as antileishmanial agent with PTR1 inhibition” (Eur J Med Chem, 2023).
≈ marks a conversion by molar mass, not a printed value.

Columns and labels:
[1] = test system: DHFR (human) versus PTR1 (Leishmania major); test: Selectivity index, ratio of IC50 for human DHFR to IC50 for Leishmania major PTR1; format: toxicity; settings: human DHFR enzyme and Leishmania major PTR1 enzyme, read-out: Ratio IC50
Leishmania tropica [2] = test: Antileishmanial activity against Leishmania tropica MHOM/A7/1974/SAF-K27 incubated for 48 hrs by Neubauer hemocytometer analysis; format: functional, organism-based; settings: MHOM/A7/1974/SAF-K27, 48 h
Leishmania infantum [3] = test: Antileishmanial activity against Leishmania infantum MHOM/TN/1980/IPT1 incubated for 48 hrs by Neubauer hemocytometer analysis; format: functional, organism-based; settings: MHOM/TN/1980/IPT1, 48 h
Leishmania tropica [4] = test: Antileishmanial activity against Leishmania tropica MHOM/A7/1974/SAF-K27 incubated for 48 hrs by XTT method; format: functional, organism-based; settings: MHOM/A7/1974/SAF-K27, 48 h
Leishmania infantum [5] = test: Antileishmanial activity against Leishmania infantum MHOM/TN/1980/IPT1 incubated for 48 hrs by XTT method; format: functional, organism-based; settings: MHOM/TN/1980/IPT1, 48 h
RAW264.7 = test: (§1) Cytotoxicity against mouse RAW264.7 cells by alamar blue method; format: toxicity, cell-based; settings: raw264.7
[6] = as §1; format: toxicity, cell-based; settings: mouse, RAW264.7 cells
Dihydrofolate reductase = target: T1, Dihydrofolate reductase (Homo sapiens, UniProt P00374); test: Inhibition of human DHFR using dihydrofolate as substrate in presence of NADPH; format: toxicity
T1 sequence (P00374 whole entry): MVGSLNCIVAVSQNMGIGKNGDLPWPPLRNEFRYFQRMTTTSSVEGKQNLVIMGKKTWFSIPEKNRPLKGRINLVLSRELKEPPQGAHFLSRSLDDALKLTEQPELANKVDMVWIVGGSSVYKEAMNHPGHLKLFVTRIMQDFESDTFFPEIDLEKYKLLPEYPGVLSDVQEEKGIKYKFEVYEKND

L929 = test: (§2) Cytotoxicity against mouse L929 cells by alamar blue method; format: toxicity, cell-based; settings: l929
[7] = as §2; format: toxicity, cell-based; settings: mouse, L929 cells
Pteridine reductase 1 = target: T2, Pteridine reductase 1 (Leishmania major, UniProt Q01782); test: Inhibition of recombinant Leishmania major PTR1 expressed in Escherichia coli BL21 using folic acid as substrate in presence of NADPH
T2 sequence (Q01782 whole entry): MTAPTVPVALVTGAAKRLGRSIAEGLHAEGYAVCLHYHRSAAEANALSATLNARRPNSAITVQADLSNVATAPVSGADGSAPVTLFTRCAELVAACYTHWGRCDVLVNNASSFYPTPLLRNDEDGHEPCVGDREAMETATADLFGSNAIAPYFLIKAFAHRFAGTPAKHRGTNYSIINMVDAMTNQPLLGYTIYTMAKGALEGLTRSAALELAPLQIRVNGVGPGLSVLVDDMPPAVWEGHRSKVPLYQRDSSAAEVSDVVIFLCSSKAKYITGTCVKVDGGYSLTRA

IC50 (Leishmania tropica [2]) [µg/mL] | IC50 (Leishmania infantum [3]) [µg/mL] | IC50 (Pteridine reductase 1) [µM] | SMILES | selectivity ratio [1] | IC50 (Leishmania tropica [4]) [µg/mL] | IC50 (Leishmania infantum [5]) [µg/mL] | log10 IC50 (µg/mL) (RAW264.7) | IC50 [6] [µg/mL] | IC50 (Dihydrofolate reductase) [µM] | log10 IC50 (µg/mL) (L929) | IC50 [7] [µg/mL]
10.2 (≈ 25.1 µM) | 12.3 (≈ 30.3 µM) | 14.9 | O=C(Nc1nc2cnc(N3CCCC3)nc2s1)c1ccc(Cl)c([N+](=O)[O-])c1 | 25.1 | 10.6 (≈ 26.2 µM) | 12.7 (≈ 31.3 µM) | 0.95 | 8.98 (≈ 22.2 µM) | 373 | 1.39 | 24.4 (≈ 60.2 µM)
15.6 (≈ 40.2 µM) | 15.7 (≈ 40.3 µM) | 28.4 | CN1CCN(c2ncc3nc(NC(=O)c4ccc(Cl)cc4)sc3n2)CC1 | 9.54 | 15.3 (≈ 39.4 µM) | 15.4 (≈ 39.7 µM) | 1.15 | 14.1 (≈ 36.3 µM) | 271 | 1.41 | 25.7 (≈ 66.1 µM)
